Measurements as given in patent publication US20170368069A1, “USE OF 4-(4-FLUORO-2-METHOXYPHENYL)-N--1,3,5-TRIAZIN-2-AMINE FOR TREATING LEUKEMIAS” (Bayer Pharma Aktiengesellschaft, priority 2015, published 2017).
Values joined by “and” are separate entries in the source; they are usually repeats but may differ in a detail not shown here. Equal values may be shown once. “Also recorded” adds a separate entry of the source.

Experiments:
HL-60 [1] = test: Subcutaneous HL-60 leukemia xenograft, efficacy and tolerability; type: in vivo, NOD/SCID mice; conditions: 25 mg/kg/day p.o.
Protocol: (§1) The aim of the present experiments was to assess the in vivo efficacy and tolerability of Compound A′ in monotherapy in four leukemia models subcutaneously implanted in NOD/SCID mice.
(§2) The experiments included four in vivo efficacy experiments with female NOD/SCID mice bearing subcutaneous leukemia xenografts. Compound A′ was assessed at one dose level in monotherapy. Anti-tumor activity and tolerability of all groups were assessed using the vehicle control group as a reference.
(§3) Mouse strain, sex: NOD/SCID, female Animals supplied by: Harlan Total number of mice Efficacy test (implanted/randomized): 100/74 Approximate age at implantation: 5-7 weeks Approximate age at randomization: 6-9 weeks
(§4) The tumor models used in this study were derived from commercially available cell lines.
Leukemia cells were subcutaneously injected as cell suspensions into one flank of immunodeficient NOD/SCID mice under isofluorane anaesthesia (5*10^6 cells per injection). In the case of THP-1 cells, matrigel was used to increase implantation efficacy. […]
(§5) At randomization, the volume of growing tumors was initially determined. […]
(§6) Mice were weighed twice a week. Relative body weights of individual mice in % were calculated by dividing the individual body weight on day X (BWX) by the individual body weight on day 0 (BW0) multiplied by 100 according to the formula: […]
(§7) Group median relative body weights were calculated as well, considering only the weights of mice that were alive on the day in question.
(§8) The tumor volumes were determined by two-dimensional measurement with a caliper on the day of randomization (day 0) and then twice weekly (i.e. on the same days on which mice were weighed). Tumor volumes were calculated according to the formulas: […]
(§9) Anti-tumor activity was evaluated as maximum tumor volume inhibition versus the vehicle control group. […]
Tumor inhibition for a particular day (T/C in %) was calculated from the ratio of the median RTV values of test versus control groups multiplied by 100. […]

MOLM-13 = test: Proliferation assay, MOLM-13; type: cell-based; conditions: Homo sapiens; MOLM-13, acute myeloid leukemia, 11q23 positive; after 72 hours of incubation
NOMO-1 [2] = test: Proliferation assay, NOMO-1; type: cell-based; conditions: Homo sapiens; NOMO-1, acute myeloid leukemia, 11q23 positive; after 72 hours of incubation
MV4-11 [3] = test: Subcutaneous MV4-11 leukemia xenograft, efficacy and tolerability; type: in vivo, NOD/SCID mice
Protocol: as §1, §2, §3, §4
(§10) Leukemia cells were subcutaneously injected as cell suspensions into one flank of immunodeficient NOD/SCID mice under isofluorane anaesthesia (5*10^6 cells per injection). In the case of THP-1 cells, matrigel was used to increase implantation efficacy. For this, 1×10^8 leukemia cells were mixed with matrigel and an appropriate volume of the solution containing 5*10^6 cells was injected as described above.
At randomization, the volume of growing tumors was initially determined. […] The result of the randomization was documented and maintained with the experimental data. Animals not randomized were euthanized. The day of randomization is designated as day 0 of an experiment. […]
as §6, §7, §8, §9
(§11) Tumor inhibition for a particular day (T/C in %) was calculated from the ratio of the median RTV values of test versus control groups multiplied by 100.
The minimum (or optimum) T/C % value recorded for a particular test group during an experiment represents the maximum anti-tumor activity for the respective treatment. T/C values were calculated if at least 50% of the randomized animals in a group were alive on the day in question. […]

MV4-11 [4] = test: Proliferation assay, MV4-11; type: cell-based; conditions: Homo sapiens; MV4-11, acute myeloid leukemia, 11q23 positive; after 72 hours of incubation
THP-1 = test: Subcutaneous THP-1 leukemia xenograft, efficacy and tolerability; type: in vivo, NOD/SCID mice
Protocol: as §1, §2, §3, §4, §10
(§12) At randomization, the volume of growing tumors was initially determined. […] The result of the randomization was documented and maintained with the experimental data. Animals not randomized were euthanized. The day of randomization is designated as day 0 of an experiment.
(§13) Vehicle: 80% (m/V) PEG400 in water for injection Compound A′: preparation of a dosing solution (2.5 mg/ml) once weekly by diluting the Compound A′ powder at 0.25% (w/v) in vehicle; storage of the dosing solution at 4° C.; dosing volume 10 ml/kg
as §6, §7, §8
(§14) Anti-tumor activity was evaluated as maximum tumor volume inhibition versus the vehicle control group. Data evaluation was performed using Oncotest proprietary software.
as §11
(§15) The minimum (or optimum) T/C % value recorded for a particular test group during an experiment represents the maximum anti-tumor activity for the respective treatment. T/C values were calculated if at least 50% of the randomized animals in a group were alive on the day in question.
(§16) Group optimum T/C values (in %) were used for activity rating as follows:
(§17) All leukemia models were implanted by subcutaneous injection of the corresponding cell line into female NOD/SCID mice. Compound A′ was administered orally at one dose level (25 mg/kg/day) in monotherapy once daily and treatment started once subcutaneous tumors were established. A vehicle-treated control group was included in each experiment. […] Anti-tumor activity (tumor growth inhibition) and tolerability of all groups were assessed using the vehicle control group as a reference.

KG-1 = test: Proliferation assay, KG-1; type: cell-based; conditions: Homo sapiens; KG-1, acute myeloid leukemia; after 72 hours of incubation
NOMO-1 [5] = test: Subcutaneous NOMO-1 leukemia xenograft, efficacy and tolerability; type: in vivo, NOD/SCID mice
Protocol: as §1, §2, §3, §4, §10, §12, §13, §6, §7, §8, §14, §11, §15, §16, §17

[6] = system: leukemia xenograft models MV4-11, NOMO-1, THP-1 and HL-60; test: Leukemia xenograft models, statements pooled over several models; type: in vivo; conditions: leukemia xenografts bearing mice, 25 mg/kg/day p.o.
Protocol: as §1, §2
Mouse strain, sex: NOD/SCID, female Animals supplied by: Harlan Total number of mice Efficacy test (implanted/randomized): 100/74 Approximate age at implantation: 5-7 weeks Approximate age at randomization: 6-9 weeks […]
as §5, §6, §7, §8

PL-21 = test: Proliferation assay, PL-21; type: cell-based; conditions: PL-21, acute myeloid leukemia; after 72 hours of incubation
OCI-AML-2 = test: Proliferation assay, OCI-AML-2; type: cell-based; conditions: Homo sapiens, OCI-AML2; OCI-AML-2, acute myeloid leukemia; after 72 hours of incubation
HL-60 [7] = test: Proliferation assay, HL-60; type: cell-based; conditions: Homo sapiens; HL-60, acute leukemia; after 72 hours of incubation with the substance

In the case of `COc1cc(F)ccc1-c1ncnc(Nc2cccc(CS(C)(=N)=O)c2)n1` (single isomer, unassigned; (+)) [Compound A′, (+)-4-(4-Fluoro-2-methoxyphenyl)-N-{3-[(S-methylsulfonimidoyl)methyl]phenyl}-1,3,5-triazin-2-amine], the “Min. T/C” value (HL-60 [1]; HL-60 xenograft (no 11q23 translocation), schedule days 0-6, 11-17, minimum on day 14, 25 mg/kg/day) is reported as 63.9% and 63.9 (14) %, the “anti-tumor activity (in words)” value (HL-60 [1]; HL-60 xenograft) is reported as “borderline anti-tumor activity” and the “Activity Rating” value (HL-60 [1]; HL-60 xenograft, days 0-6, 11-17, rating from group optimum T/C) is reported as “+/− (Borderline activity 50% ≦ T/C < 65%)”. The IC50 (MOLM-13) was 320 nM, the IC50 (NOMO-1 [2]) was 328 nM and the “Min. T/C” value (MV4-11 [3]; MV4-11 xenograft (11q23 translocation), 25 mg/kg/day p.o., days 0-25, minimum on day 14) was 11.9 (14) %. The “anti-tumor activity (in words)” value (MV4-11 [3]; MV4-11 xenograft, 25 mg/kg/day p.o.) was “High anti-tumor activity”, the “Activity Rating” value (MV4-11 [3]; MV4-11 xenograft, 25 mg/kg/day p.o., days 0-25, rating from group optimum T/C) was “++ (High activity 10% ≦ T/C < 25%)” and the “Tumor growth versus vehicle control group” value (MV4-11 [3]; MV4-11 xenograft, Mann-Whitney-Wilcoxon U-test) was “significantly reduced; also recorded: significantly attenuated”. For the same compound, the IC50 (MV4-11 [4]) was 386 nM, the “Min. T/C” value (THP-1; THP-1 xenograft (11q23 translocation), 25 mg/kg/day p.o., days 0-25, minimum on day 14) was 21.0 (14) % and the “anti-tumor activity (in words)” value (THP-1; THP-1 xenograft, 25 mg/kg/day p.o.) was “High anti-tumor activity”. For the same compound, the “Activity Rating” value (THP-1; THP-1 xenograft, 25 mg/kg/day p.o., days 0-25, rating from group optimum T/C) was “+ (Moderate activity 25% ≦ T/C < 50%)”, the “group median BWL (body weight loss)” value (THP-1; THP-1 xenograft-bearing mice, 25 mg/kg/day p.o.) was “up to 0.4%” and the “Tumor growth versus vehicle control group” value (THP-1; THP-1 xenograft, Mann-Whitney-Wilcoxon U-test) was “significantly reduced; also recorded: significantly attenuated”. For the same compound, the IC50 (KG-1) was 670 nM, the “Min. T/C” value (NOMO-1 [5]; NOMO-1 xenograft (11q23 translocation), 25 mg/kg/day p.o., days 0-25, minimum on day 14) was 19.7 (14) % and the “anti-tumor activity (in words)” value (NOMO-1 [5]; NOMO-1 xenograft, 25 mg/kg/day p.o.) was “High anti-tumor activity”. The “Activity Rating” value (NOMO-1 [5]; NOMO-1 xenograft, 25 mg/kg/day p.o., days 0-25, rating from group optimum T/C) was “++ (High activity 10% ≦ T/C < 25%)”, the “group median BWL (body weight loss)” value (NOMO-1 [5]; NOMO-1 xenograft-bearing mice, 25 mg/kg/day p.o.) was “up to 0.4%” and the “Tumor growth versus vehicle control group” value (NOMO-1 [5]; NOMO-1 xenograft, Mann-Whitney-Wilcoxon U-test) was “significantly reduced; also recorded: significantly attenuated”. The tolerability [6] was “acceptable tolerability profile”, the IC50 (PL-21) was 192 nM and the IC50 (OCI-AML-2) was 323 nM. For the same compound, the IC50 (HL-60 [7]) was 1120 nM.
